Patent publication US6723716B1, “7-acylamino-3-heteroarylthio-3-cephem carboxylic acid antibiotics and prodrugs thereof” (Essential Therapeutics, Inc., priority 1999, dated 2004)
In brackets after ≈: the same amount, converted by molar mass.

Tests used:
[1] = tested on: E. coli ATCC25992; experiment: Broth microdilution MIC (NCCLS); assay type: cell-based; details: Escherichia coli
How it was run: (§1)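 NCCLS broth microdilution in Mueller-Hinton broth, final inoculum 5×10^5 CFU/mL from early-log cultures (Enterococcus diluted from overnight cultures), serial 2-fold compound dilutions. Plates incubated 24 h at 35° C, read at 650 nm and visually; MIC = lowest concentration preventing growth.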

[2] = tested on: E. faecalis ATCC 29212; experiment: Broth microdilution MIC (NCCLS); assay type: cell-based; details: Enterococcus faecalis, ATCC29212
How it was run: as §1

[3] = tested on: E. faecalis VanB (Van^R); experiment: Broth microdilution MIC (NCCLS); assay type: cell-based; details: Enterococcus faecalis
How it was run: as §1

[4] = tested on: E. faecium ATCC 35667; experiment: Broth microdilution MIC (NCCLS); assay type: cell-based; details: Enterococcus faecium, ATCC35667
How it was run: as §1

[5] = tested on: E. faecium VanA (Van^R); experiment: Broth microdilution MIC (NCCLS); assay type: cell-based; details: Enterococcus faecium
How it was run: as §1

[6] = tested on: P. aeruginosa ATCC 27853; experiment: Broth microdilution MIC (NCCLS); assay type: cell-based; details: Pseudomonas aeruginosa, ATCC27853
How it was run: as §1

[7] = tested on: S. aureus 76 (Meth^R)(lac^+); experiment: Broth microdilution MIC (NCCLS); assay type: cell-based; details: Staphylococcus aureus
How it was run: as §1

[8] = tested on: S. aureus ATCC 29213; experiment: Broth microdilution MIC (NCCLS); assay type: cell-based; details: Staphylococcus aureus, ATCC29213; S. aureus ATCC 29213; Mueller-Hinton broth, 24 h at 35° C.; read-out: MIC
How it was run: as §1

[9] = tested on: S. aureus ATCC 33593 (Meth^R); experiment: Broth microdilution MIC (NCCLS); assay type: cell-based; details: Staphylococcus aureus, ATCC33593
How it was run: as §1

[10] = tested on: S. aureus Col (Meth^R)(lac^−); experiment: Broth microdilution MIC (NCCLS); assay type: cell-based; details: Staphylococcus aureus
How it was run: as §1

[11] = tested on: S. aureus PC1 (Meth^S)(lac^+); experiment: Broth microdilution MIC (NCCLS); assay type: cell-based; details: Staphylococcus aureus
How it was run: as §1

[12] = tested on: S. aureus Spain #356 (Meth^R); experiment: Broth microdilution MIC (NCCLS); assay type: cell-based; details: Staphylococcus aureus, 24 h
How it was run: as §1

[13] = tested on: S. haemolyticus 05 (Meth^R); experiment: Broth microdilution MIC (NCCLS); assay type: cell-based; details: Staphylococcus haemolyticus
How it was run: as §1

[14] = tested on: E. faecium A491 (Amp^R); experiment: Broth microdilution MIC (NCCLS); assay type: cell-based; details: Enterococcus faecium
How it was run: as §1

[15] = tested on: S. aureus ATCC29213; experiment: Human serum binding effect: MIC with and without human serum; assay type: cell-based, Staphylococcus aureus; details: 1:1 human serum:MHB
How it was run: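 Serum binding was estimated as the ratio of S. aureus ATCC29213 MIC in 1:1 human serum:Mueller-Hinton broth to MIC without serum. Compounds were serially 2-fold diluted, and wells received an early-log-phase inoculum at 1×10^6 CFU/mL final. Inoculum size was checked by colony counts on TSA after overnight incubation at 35 °C.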

Row | Structure (SMILES) | MIC [1] | MIC [2] | MIC [3] | MIC [4] | MIC [5] | MIC [6] | MIC [7] | MIC [8] | MIC [9] | MIC [10] | MIC [11] | MIC [12] | MIC [13] | MIC [14] | Human serum binding effect (ratio of MIC value determined with and without human serum added) [15]
1 | NCCSCc1ncsc1SC1=C(C(=O)O)N2C(=O)[C@@H](NC(=O)/C(=N\O)c3cccc(N)n3)[C@H]2SC1 [Cmpd 23, (7R)-7-[(Z)-2-(2-aminopyrid-6-yl)-2-(hydroxyimino)acetamido]-3-[4-(2-aminoethylthiomethyl)-1,3-thiazol-5-ylthio]-3-cephem-4-carboxylic acid] | 16 µg/mL (≈ 28.2 µM) | 0.25 µg/mL (≈ 0.44 µM) | 0.5 µg/mL (≈ 0.881 µM) | 2 µg/mL (≈ 3.52 µM) | 2 µg/mL (≈ 3.52 µM) | > 32 µg/mL | 2 µg/mL (≈ 3.52 µM) | 0.13 µg/mL (≈ 0.229 µM) | 1 µg/mL (≈ 1.76 µM) | 1 µg/mL (≈ 1.76 µM) | 0.13 µg/mL (≈ 0.229 µM) | 2 µg/mL (≈ 3.52 µM) | 4 µg/mL (≈ 7.05 µM) |  | 
2 | NCCSCc1cnccc1SC1=C(C(=O)O)N2C(=O)C(NC(=O)/C(=N\O)c3csc(N)n3)C2SC1 (stereo not drawn) [Cmpd 19] | 4 µg/mL (≈ 7.05 µM) | 0.5 µg/mL (≈ 0.881 µM) | 1 µg/mL (≈ 1.76 µM) | 2 µg/mL (≈ 3.52 µM) | 4 µg/mL (≈ 7.05 µM) | > 32 µg/mL | 2 µg/mL (≈ 3.52 µM) | 0.5 µg/mL (≈ 0.881 µM) | 2 µg/mL (≈ 3.52 µM) | 2 µg/mL (≈ 3.52 µM) | 0.5 µg/mL (≈ 0.881 µM) | 2 µg/mL (≈ 3.52 µM) | 4 µg/mL (≈ 7.05 µM) | > 32 µg/mL | 2
3 | NCCSCc1ccncc1SC1=C(C(=O)O)N2C(=O)[C@@H](NC(=O)/C(=N\O)c3nc(N)sc3Cl)[C@H]2SC1 [Cmpd 21, (7R)-7-[(Z)-2-(2-amino-5-chlorothiazol-4-yl)-2-(hydroxyimino)acetamido]-3-[4-(2-aminoethylthiomethyl)pyrid-3-ylthio]-3-cephem-4-carboxylic acid] |  |  |  |  |  |  |  |  |  |  | 0.25 µg/mL (≈ 0.415 µM) |  |  |  | 2
4 | NCCSCc1cnccc1SC1=C(C(=O)O)N2C(=O)[C@@H](NC(=O)/C(=N\O)c3cccc(N)n3)[C@H]2SC1 [Cmpd 24, (7R)-7-[(Z)-2-(2-aminopyrid-6-yl)-2-(hydroxyimino)acetamido]-3-[3-(2-aminoethylthiomethyl)pyrid-4-ylthio]-3-cephem-4-carboxylic acid] | 16 µg/mL (≈ 28.5 µM) | 0.25 µg/mL (≈ 0.445 µM) | 0.5 µg/mL (≈ 0.89 µM) | 1 µg/mL (≈ 1.78 µM) | 2 µg/mL (≈ 3.56 µM) | > 32 µg/mL | 1 µg/mL (≈ 1.78 µM) | 0.25 µg/mL (≈ 0.445 µM) | 2 µg/mL (≈ 3.56 µM) | 1 µg/mL (≈ 1.78 µM) | 0.25 µg/mL (≈ 0.445 µM) | 2 µg/mL (≈ 3.56 µM) | 2 µg/mL (≈ 3.56 µM) | 32 µg/mL (≈ 57 µM) | 
5 | N=C(N)NCCSCc1cnccc1SC1=C(C(=O)O)N2C(=O)[C@@H](NC(=O)/C(=N\O)c3nsc(N)n3)[C@H]2SC1 [Cmpd 25, (7R)-7-[(Z)-2-(5-amino-1,2,4-thiadiazol-3-yl)-2-(hydroxyimino)acetamido]-3-[3-(2-guanidinoethylthiomethyl)pyrid-4-ylthio]-3-cephem-4-carboxylic acid] | 1 µg/mL (≈ 1.64 µM) | 0.13 µg/mL (≈ 0.213 µM) | 0.25 µg/mL (≈ 0.409 µM) | 0.5 µg/mL (≈ 0.819 µM) | 1 µg/mL (≈ 1.64 µM) | > 32 µg/mL | 1 µg/mL (≈ 1.64 µM) | 0.25 µg/mL (≈ 0.409 µM) | 1 µg/mL (≈ 1.64 µM) | 1 µg/mL (≈ 1.64 µM) | 0.13 µg/mL (≈ 0.213 µM) | 1 µg/mL (≈ 1.64 µM) | 2 µg/mL (≈ 3.27 µM) | 32 µg/mL (≈ 52.4 µM) | 1
6 | NCCSCc1ncccc1SC1=C(C(=O)O)N2C(=O)[C@@H](NC(=O)/C(=N\O)c3nsc(N)n3)[C@H]2SC1 [Cmpd 17, (7R)-7-[(Z)-2-(5-amino-1,2,4-thiadiazol-3-yl)-2-(hydroxyimino)acetamido]-3-[2-(2-aminoethylthiomethyl)pyrid-3-ylthio]-3-cephem-4-carboxylic acid] |  |  |  |  |  |  |  | 0.25 µg/mL (≈ 0.44 µM) |  |  | 0.25 µg/mL (≈ 0.44 µM) |  |  |  | 2
7 | NCCSCc1cnccc1SC1=C(C(=O)O)N2C(=O)[C@@H](NC(=O)/C(=N\O)c3nc(N)sc3Cl)[C@H]2SC1 [Cmpd 20, (7R)-7-[(Z)-2-(2-amino-5-chlorothiazol-4-yl)-2-(hydroxyimino)acetamido]-3-[3-(2-aminoethylthiomethyl)pyrid-4-ylthio]-3-cephem-4-carboxylic acid] | 8 µg/mL (≈ 13.3 µM) | 0.06 µg/mL (≈ 0.0996 µM) | 0.13 µg/mL (≈ 0.216 µM) | 0.5 µg/mL (≈ 0.83 µM) | 0.25 µg/mL (≈ 0.415 µM) | > 32 µg/mL | 1 µg/mL (≈ 1.66 µM) | 0.25 µg/mL (≈ 0.415 µM) | 1 µg/mL (≈ 1.66 µM) | 0.5 µg/mL (≈ 0.83 µM) | 0.25 µg/mL (≈ 0.415 µM) | 1 µg/mL (≈ 1.66 µM) | 2 µg/mL (≈ 3.32 µM) | 8 µg/mL (≈ 13.3 µM) | 3
8 | NCCSCc1ncccc1SC1=C(C(=O)O)N2C(=O)[C@@H](NC(=O)/C(=N\O)c3nc(N)sc3Cl)[C@H]2SC1 [Cmpd 13, (7R)-7-[(Z)-2-(2-amino-5-chlorothiazol-4-yl)-2-(hydroxyimino)acetamido]-3-[2-(2-aminoethylthiomethyl)pyrid-3-ylthio]-3-cephem-4-carboxylic acid] |  |  |  |  |  |  |  | 0.25 µg/mL (≈ 0.415 µM) |  | 0.5 µg/mL (≈ 0.83 µM) | 0.25 µg/mL (≈ 0.415 µM) |  |  |  | 2
9 | NCCSCc1cnccc1SC1=C(C(=O)O)N2C(=O)[C@@H](NC(=O)/C(=N\O)c3nsc(N)n3)[C@H]2SC1 [Cmpd 18, (7R)-7-[(Z)-2-(5-amino-1,2,4-thiadiazol-3-yl)-2-(hydroxyimino)acetamido]-3-[3-(2-aminoethylthiomethyl)pyrid-4-ylthio]-3-cephem-4-carboxylic acid] | 0.5 µg/mL (≈ 0.879 µM) | 0.13 µg/mL (≈ 0.229 µM) | 0.25 µg/mL (≈ 0.44 µM) | 0.5 µg/mL (≈ 0.879 µM) | 1 µg/mL (≈ 1.76 µM) | > 32 µg/mL | 1 µg/mL (≈ 1.76 µM) | 0.13 µg/mL (≈ 0.229 µM) | 1 µg/mL (≈ 1.76 µM) | 1 µg/mL (≈ 1.76 µM) | 0.13 µg/mL (≈ 0.229 µM) | 1 µg/mL (≈ 1.76 µM) | 2 µg/mL (≈ 3.52 µM) | 32 µg/mL (≈ 56.3 µM) | 2
10 | NCCSCc1nc(N)sc1SC1=C(C(=O)O)N2C(=O)[C@@H](NC(=O)/C(=N\O)c3nc(N)sc3Cl)[C@H]2SC1 [Cmpd 3, (7R)-7-[(Z)-2-(2-amino-5-chlorothiazol-4-yl)-2-(hydroxyimino)acetamido]-3-[4-(2-aminoethylthiomethyl)-2-amino-1,3-thiazol-5-ylthio]-3-cephem-4-carboxylic acid] |  |  | 0.25 µg/mL (≈ 0.401 µM) | 1 µg/mL (≈ 1.6 µM) | 8 µg/mL (≈ 12.8 µM) | 4 µg/mL (≈ 6.42 µM) | 1 µg/mL (≈ 1.6 µM) | 0.25 µg/mL (≈ 0.401 µM) |  |  | 0.25 µg/mL (≈ 0.401 µM) | 1 µg/mL (≈ 1.6 µM) | 1 µg/mL (≈ 1.6 µM) |  | 4
11 | NCCSCc1nc(SCCN)sc1SC1=C(C(=O)O)N2C(=O)[C@@H](NC(=O)/C(=N\O)c3nc(N)sc3Cl)[C@H]2SC1 [Cmpd 11, (7R)-7-[(Z)-2-(2-amino-5-chlorothiazol-4-yl)-2-(hydroxyimino)acetamido]-3-[4-(2-aminoethylthiomethyl)-2-aminoethylthio-1,3-thiazol-5-ylthio]-3-cephem-4-carboxylic acid] | 2 µg/mL (≈ 2.93 µM) | 0.06 µg/mL (≈ 0.0878 µM) | 0.06 µg/mL (≈ 0.0878 µM) | 0.5 µg/mL (≈ 0.732 µM) | 4 µg/mL (≈ 5.85 µM) | 2 µg/mL (≈ 2.93 µM) | 0.5 µg/mL (≈ 0.732 µM) | 0.06 µg/mL (≈ 0.0878 µM) | 0.5 µg/mL (≈ 0.732 µM) | 0.5 µg/mL (≈ 0.732 µM) | 0.13 µg/mL (≈ 0.19 µM) | 0.5 µg/mL (≈ 0.732 µM) | 0.5 µg/mL (≈ 0.732 µM) | 4 µg/mL (≈ 5.85 µM) | 4
12 | N=C(N)NCCSCc1ncccc1SC1=C(C(=O)O)N2C(=O)[C@@H](NC(=O)/C(=N\O)c3nsc(N)n3)[C@H]2SC1 [Cmpd 14, (7R)-7-[(Z)-2-(5-amino-1,2,4-thiadiazol-3-yl)-2-(hydroxyimino)acetamido]-3-[2-(2-guanidinoethylthiomethyl)pyrid-3-ylthio]-3-cephem-4-carboxylic acid] |  |  | 0.25 µg/mL (≈ 0.409 µM) |  |  |  |  |  |  |  |  |  |  |  | 2
